Like-named read-outs stand apart in the source and are kept apart here.
Tests used:
[1] = system: abdominal aorta ring specimen; test: Evaluation of blood vessel relaxing function (phenylephrine-contracted abdominal aorta ring); conditions: relaxation of rat abdominal aorta contracted with 1 μmol/L phenylephrine; without vs with 10 μmol/L ODQ
Description: The representative compounds of the present invention were evaluated by blood vessel relaxing function according to the following Test Example. In the assay, bleeding from the upper part of a heart of a rat (male, SD) was performed under anesthesia with pentobarbital (30 mg/kg) and then abdominal aorta was extracted. The connecting tissue adhered around blood vessel was removed from the abdominal aorta in an ice-cooled Krebs-Henseleit solution (KH solution) (118 mmol/L sodium chloride, 4.7 mmol/L potassium chloride, 1.2 mmol/L magnesium sulfate, 1.2 mmol/L potassium dihydrogen phosphate, 25 mmol/L sodium hydrogen carbonate, 2.5 mmol/L calcium chloride, and 10 mmol/L glucose, pH 7.4). After that, a ring specimen with length of 2 mm was prepared and fixed in 5 mL organ bath filled with a KH solution. The KH solution was kept at 37° C. and aerated with a mixture gas of 95% O2 and 5% CO2. The specimen was stabilized for 1 hour with static tension of 1 g. The KH solution was exchanged twice during that time. The tension on the specimen was recorded on a multi-channel recorder via pickup and amplifier. After the stabilization of the specimen, contraction was caused by using 1 μmol/L phenylephrine (Phe), and cumulative administration of each compound (0.001, 0.01, 0.03, 0.1, 0.3, 1, 3, 10, 30, 100, 1000, 10000 nmol/L) was performed. For the evaluation of a case in which 1H-1,2,4-oxadiazole-(4,3a)-quinoxalin-1-one (ODQ) is contained, 10 μmol/L ODQ was added 10 minutes before the Phe addition, and the same evaluation as above was performed.
EC50 value was calculated using four-parameter logistics model using Assay Explorer (Accelrys). The test compound solution was dissolved in DMSO such that the concentration of each test compound is 1000 times the final concentration.

[2] = biological target: T1, human sGC α subunit and β subunit (Homo sapiens, UniProt Q02153); test: Maximum effect of sGC activating function (Ca2+ fluorescence in CHO-K1 cells expressing human sGC and mouse CNGA2); format: cell-based; conditions: increase ratio of sGC activity vs control solution at 10 μmol/L test compound
T1 construct: expressed in transfected cells
T1 sequence (Q02153 1-619): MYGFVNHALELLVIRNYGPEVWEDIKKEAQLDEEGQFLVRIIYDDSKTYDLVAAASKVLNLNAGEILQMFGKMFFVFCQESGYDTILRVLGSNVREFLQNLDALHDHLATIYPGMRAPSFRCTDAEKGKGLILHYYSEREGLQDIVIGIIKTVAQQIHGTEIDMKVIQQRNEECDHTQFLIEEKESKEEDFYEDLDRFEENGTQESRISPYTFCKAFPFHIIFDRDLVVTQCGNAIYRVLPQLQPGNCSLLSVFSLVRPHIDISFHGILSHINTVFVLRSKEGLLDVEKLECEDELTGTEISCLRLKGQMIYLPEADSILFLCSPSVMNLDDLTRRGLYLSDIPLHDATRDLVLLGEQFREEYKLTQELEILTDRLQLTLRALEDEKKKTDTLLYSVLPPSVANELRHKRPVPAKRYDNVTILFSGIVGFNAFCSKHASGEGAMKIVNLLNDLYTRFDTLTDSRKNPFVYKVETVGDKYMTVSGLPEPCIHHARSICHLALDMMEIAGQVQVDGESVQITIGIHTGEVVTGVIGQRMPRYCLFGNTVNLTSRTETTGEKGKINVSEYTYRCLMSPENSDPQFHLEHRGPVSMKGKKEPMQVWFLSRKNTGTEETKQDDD
T1 sequence (Q02108 1-690 partner): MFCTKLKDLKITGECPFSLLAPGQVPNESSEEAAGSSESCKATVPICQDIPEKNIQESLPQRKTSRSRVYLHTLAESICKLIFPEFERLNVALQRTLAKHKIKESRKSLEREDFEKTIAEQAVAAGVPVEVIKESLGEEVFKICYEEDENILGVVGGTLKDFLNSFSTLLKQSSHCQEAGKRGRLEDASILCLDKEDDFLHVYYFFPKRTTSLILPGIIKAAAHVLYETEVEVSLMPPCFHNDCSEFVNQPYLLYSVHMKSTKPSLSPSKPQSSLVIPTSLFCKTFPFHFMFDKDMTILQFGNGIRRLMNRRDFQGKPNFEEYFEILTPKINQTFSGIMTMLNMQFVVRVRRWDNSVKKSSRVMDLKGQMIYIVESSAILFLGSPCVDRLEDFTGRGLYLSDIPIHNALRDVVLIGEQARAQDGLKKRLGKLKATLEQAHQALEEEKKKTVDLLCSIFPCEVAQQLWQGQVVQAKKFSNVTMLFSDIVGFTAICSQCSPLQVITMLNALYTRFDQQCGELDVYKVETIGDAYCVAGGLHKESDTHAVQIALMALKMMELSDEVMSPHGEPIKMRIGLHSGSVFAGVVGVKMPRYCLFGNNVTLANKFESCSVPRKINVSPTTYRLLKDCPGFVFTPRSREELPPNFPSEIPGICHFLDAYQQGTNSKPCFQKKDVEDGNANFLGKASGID
Description: For the assay, Chinese hamster ovary cells (CHO-K1 cells) in which human sGC α subunit and β subunit and mouse cyclic nucleotide gated channel (CNGA2) are stably expressed were used.
CHO-K1 cells in which human sGC and mouse CNGA2 are stably expressed were cultured at 37° C. in F-12 medium containing 10% (v/v) fetal bovine serum (FBS), penicillin (100 U/mL), streptomycin (100 μg/mL), G418 (250 μg/mL), and zeocin (250 μg/mL). The cells were suspended in the culture medium and seeded onto a 96-well plate, and then cultured at 37° C. for 24 hours. After washing with assay buffer 1 (140 mmol/L sodium chloride, 5 mmol/L potassium chloride, 0.5 mmol/L magnesium chloride, 0.01 mmol/L calcium chloride, 10 mmol/L glucose, 0.4 mmol/L magnesium sulfate, 10 mmol/L 4-(2-hydroxyethyl)piperazin-1-ylethane sulfonic acid, and 125 μmol/L sulfinpyrazone, pH 7.4), an indicator solution in which FURA2-AM as a fluorescent Ca^2+ indicator is dissolved at concentration of 5 μmol/L in assay buffer 1 was added followed by culture for 60 minutes at 37° C. The indicator solution was removed. After washing with assay buffer 1, the test compound solution was added and incubated for 10 minutes at room temperature. The plate was placed in a fluorometer (Flex Station II, Molecular Devices, LLC), and then the intracellular calcium concentration was measured as fluorescence intensity ratio which is obtained from each excitation wavelength (excitation wavelength of 340 nm and 380 nm and detection wavelength of 510 nm).
The test compound solution was prepared by dissolving each of the test compounds in DMSO to a concentration of 10 mmol/L, and then adding the assay buffer 2 (140 mmol/L sodium chloride, 5 mmol/L potassium chloride, 0.5 mmol/L magnesium chloride, 1 mmol/L calcium chloride, 10 mmol/L glucose, 0.4 mmol/L magnesium sulfate, 10 mmol/L 4-(2-hydroxyethyl)piperazin-1-ylethane sulfonic acid, 125 μmol/L sulfinpyrazone, 100 μmol/L isobutylmethylxanthine, 10 μmol/L 1H-[1,2,4]-oxadiazole[4,3-a]quinoxalin-1-one (hereinbelow, ODQ), pH 7.4) for dilution to have test concentration of 10 μmol/L. For the evaluation of a case in which ODQ is not contained, the same evaluation was performed except that ODQ is excluded from assay buffer 2. As a control solution, a DMSO solution was used instead of the test compound solution.
The activity of the test compound corresponds to the increase ratio (%) of the sGC activity at the time of adding the test compound solution with respect to the sGC activity at the time of adding the control solution, and it was calculated by dividing the fluorescence intensity ratio at the time of adding the test compound by the fluorescence intensity ratio of the control solution and subtracting the sGC activity (100%) at the time of adding the control solution.
In this assay, intracellular cGMP concentration increases as sGC is activated, and according to opening of CNGA2 following the increase of cGMP, intracellular Ca^2+ concentration increases. Thus, SGC activation can be measured by following the change in intracellular Ca^2+ concentration. […] Thus, in the absence of ODQ, the maximum sGC activating function including the heme-dependent activation can be evaluated while the heme-independent sGC activating function can be evaluated in the presence of ODQ.

EC50 Ratio (ODQ−/ODQ+) [1]: 5.2 | Emax at 10 µM ([2]; ODQ not contained, read-out: Emax (%) ODQ− (Heme-dependent)): 81.3% | Emax at 10 µM ([2]; with 10 μmol/L ODQ, read-out: Emax (%) ODQ+ (Heme-independent)): 123%
Structure (SMILES): O=C(O)CCCCN(CCc1ccccc1OCc1ccc2c(c1)CCC2)C1CCCc2cc(C(=O)O)ccc21 (stereo not drawn) [Example 46, 5-{N-(4-Carboxybutyl)-N-[2-[2-(indane-5-ylmethoxy)phenyl]ethyl]amino}-5,6,7,8-tetrahydronaphthalene-2-carboxylic acid]
